Results on 4 molecules are retold here after ChEMBL document CHEMBL3232931 (J Med Chem, 2014).

For series [1], the target named is Ubiquitin carboxyl-terminal hydrolase 20 (Homo sapiens, UniProt Q9Y2K6). Briefly: Inhibition of human USP20 using Ub-rhodamine 110 as substrate.
Series [2] deals with Replicase polyprotein 1a (Human coronavirus NL63) (UniProt P0C6U6). Description: (§1) Inhibition of human coronavirus NL63 PLP2 (amino acids 1565 to 1894) expressed in Escherichia coli BL21 (DE3) cells assessed as reduction of AMC release using Z-RLRGG-AMC as substrate by multimode plate reader analysis.
Another series deals with Replicase polyprotein 1a (Human coronavirus NL63, UniProt P0C6U6). Described as §1.
The subject of another series is HEK293. Briefly: Cytotoxicity against human HEK293 cells assessed as cell viability after 48 hrs by Cell Titer-Glo luminescent assay. In kind it is cell-based. Particulars: hek293, 48 h; call rule not given here. On the technique in general: In ATP-based viability assays light output follows the ATP content of the culture.
Series [3] is described as follows: Metabolic stability in mouse liver microsomes assessed as parent compound remaining at 1 uM after 15 mins. The class given is ADME. To be noted: read-out: Stability. (Liver microsomes are vesicles of endoplasmic reticulum, rich in cytochrome P450 enzymes.)
In series [4] the target is T1, Ubiquitin carboxyl-terminal hydrolase 2 (Homo sapiens) (UniProt O75604).
T1 sequence (whole entry): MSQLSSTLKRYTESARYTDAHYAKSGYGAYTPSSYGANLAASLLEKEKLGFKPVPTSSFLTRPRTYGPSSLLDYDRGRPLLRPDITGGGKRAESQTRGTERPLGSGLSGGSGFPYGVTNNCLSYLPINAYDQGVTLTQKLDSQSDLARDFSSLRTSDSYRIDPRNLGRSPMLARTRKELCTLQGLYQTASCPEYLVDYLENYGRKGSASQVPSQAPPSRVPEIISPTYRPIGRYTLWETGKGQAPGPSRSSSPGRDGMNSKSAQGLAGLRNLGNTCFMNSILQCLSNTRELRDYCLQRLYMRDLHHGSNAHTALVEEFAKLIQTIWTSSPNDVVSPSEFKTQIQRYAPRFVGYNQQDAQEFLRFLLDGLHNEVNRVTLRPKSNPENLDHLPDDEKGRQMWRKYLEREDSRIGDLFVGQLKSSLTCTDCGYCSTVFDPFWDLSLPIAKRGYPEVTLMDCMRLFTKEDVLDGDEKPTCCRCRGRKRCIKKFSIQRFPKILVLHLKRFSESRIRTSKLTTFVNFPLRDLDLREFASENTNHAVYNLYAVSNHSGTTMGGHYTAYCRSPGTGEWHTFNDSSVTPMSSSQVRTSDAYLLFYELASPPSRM
Description: Inhibition of human USP2 using Ub-rhodamine 110 as substrate at 31 uM.

The target in series [5] is T2, Ubiquitin carboxyl-terminal hydrolase 21 (Homo sapiens) (UniProt Q9UK80).
T2 sequence (whole entry): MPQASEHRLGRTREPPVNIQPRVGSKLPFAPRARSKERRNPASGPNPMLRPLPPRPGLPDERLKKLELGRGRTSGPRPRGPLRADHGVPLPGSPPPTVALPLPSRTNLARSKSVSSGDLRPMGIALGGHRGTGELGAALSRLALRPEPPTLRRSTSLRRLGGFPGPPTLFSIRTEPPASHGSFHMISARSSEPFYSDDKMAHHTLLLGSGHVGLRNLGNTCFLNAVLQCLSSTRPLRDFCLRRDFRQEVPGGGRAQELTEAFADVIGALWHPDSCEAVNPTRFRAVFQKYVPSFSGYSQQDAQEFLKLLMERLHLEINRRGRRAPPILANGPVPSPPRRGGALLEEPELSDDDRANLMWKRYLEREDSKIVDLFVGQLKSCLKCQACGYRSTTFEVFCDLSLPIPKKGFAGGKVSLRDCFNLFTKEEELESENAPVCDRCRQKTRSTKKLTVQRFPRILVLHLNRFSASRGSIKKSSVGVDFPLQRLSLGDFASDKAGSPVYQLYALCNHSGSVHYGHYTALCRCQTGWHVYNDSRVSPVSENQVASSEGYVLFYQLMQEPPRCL
Briefly: Inhibition of human USP21 using Ub-rhodamine 110 as substrate at 31 uM.

Series [6] is described as follows: (§2) Inhibition of SARS coronavirus papain-like protease (amino acids 1541 to 1855) expressed in Escherichia coli BL21 (DE3) cells assessed as decrease in AMC release using Z-RLRGG-AMC as substrate by multimode plate reader analysis. Further details: species or system Severe acute respiratory syndrome-related coronavirus.
For a further series, the system named is BL21-DE3. Described as §2. Particulars: Severe acute respiratory syndrome-related coronavirus.
The target of series [7] is T3, Cathepsin K (Homo sapiens) (UniProt P43235).
T3 sequence (whole entry): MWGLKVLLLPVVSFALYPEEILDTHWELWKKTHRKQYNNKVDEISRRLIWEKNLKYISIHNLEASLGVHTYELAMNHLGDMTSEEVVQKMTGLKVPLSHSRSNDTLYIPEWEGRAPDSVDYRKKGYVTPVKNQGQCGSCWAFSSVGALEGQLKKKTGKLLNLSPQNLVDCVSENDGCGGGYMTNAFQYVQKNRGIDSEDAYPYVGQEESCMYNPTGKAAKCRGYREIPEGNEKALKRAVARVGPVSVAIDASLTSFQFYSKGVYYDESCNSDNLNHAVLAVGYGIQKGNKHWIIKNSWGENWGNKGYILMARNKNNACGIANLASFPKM
Description: Inhibition of human cathepsin K using fluorogenic peptide as substrate at 31 uM.

Series [8] addresses T4, Sentrin-specific protease 8 (Homo sapiens) (UniProt Q96LD8).
T4 sequence (whole entry): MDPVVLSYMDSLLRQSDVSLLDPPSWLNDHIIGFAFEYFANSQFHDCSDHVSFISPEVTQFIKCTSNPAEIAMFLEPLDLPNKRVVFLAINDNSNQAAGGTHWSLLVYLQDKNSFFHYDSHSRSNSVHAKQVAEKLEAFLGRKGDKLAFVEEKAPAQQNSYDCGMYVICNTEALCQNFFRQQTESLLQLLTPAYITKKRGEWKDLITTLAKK
Description: Inhibition of human DEN1 using Nedd8-EKL as substrate at 31 uM.

The target of another series is T5, Caspase-3 (Homo sapiens, UniProt P42574).
T5 sequence (P42574 whole entry): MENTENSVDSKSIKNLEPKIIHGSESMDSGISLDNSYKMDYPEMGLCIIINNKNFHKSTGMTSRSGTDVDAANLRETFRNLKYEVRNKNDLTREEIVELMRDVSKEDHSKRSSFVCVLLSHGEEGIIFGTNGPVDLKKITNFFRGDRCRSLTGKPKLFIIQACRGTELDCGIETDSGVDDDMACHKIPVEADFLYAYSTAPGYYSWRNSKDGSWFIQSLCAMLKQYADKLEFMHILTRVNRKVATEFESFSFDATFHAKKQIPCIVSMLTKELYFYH
Description: Inhibition of human caspase-3 using fluorogenic peptide as substrate.

In series [9] the target is T6, Sentrin-specific protease 8 (Homo sapiens, UniProt Q96LD8).
T6 sequence (Q96LD8 whole entry): T4 sequence (whole entry)
Briefly: Inhibition of human DEN1 using Nedd8-EKL as substrate.

Series [10] can be described thus: Cytotoxicity against african green monkey Vero E6 cells assessed as cell viability after 48 hrs by Cell Titer-Glo luminescent assay. Particulars: chlorocebus sabaeus. In kind it is cell-based.
In series [11] the target is Replicase polyprotein 1a (Human coronavirus NL63) (UniProt P0C6U6). Briefly: Inhibition of human coronavirus NL63 PLP2 (amino acids 1565 to 1894) expressed in Escherichia coli BL21 (DE3) cells assessed as reduction of AMC release using Z-RLRGG-AMC as substrate at 100 uM by multimode plate reader analysis.
Target sequence in this assay (P0C6U6 whole entry, the tested form may be a part): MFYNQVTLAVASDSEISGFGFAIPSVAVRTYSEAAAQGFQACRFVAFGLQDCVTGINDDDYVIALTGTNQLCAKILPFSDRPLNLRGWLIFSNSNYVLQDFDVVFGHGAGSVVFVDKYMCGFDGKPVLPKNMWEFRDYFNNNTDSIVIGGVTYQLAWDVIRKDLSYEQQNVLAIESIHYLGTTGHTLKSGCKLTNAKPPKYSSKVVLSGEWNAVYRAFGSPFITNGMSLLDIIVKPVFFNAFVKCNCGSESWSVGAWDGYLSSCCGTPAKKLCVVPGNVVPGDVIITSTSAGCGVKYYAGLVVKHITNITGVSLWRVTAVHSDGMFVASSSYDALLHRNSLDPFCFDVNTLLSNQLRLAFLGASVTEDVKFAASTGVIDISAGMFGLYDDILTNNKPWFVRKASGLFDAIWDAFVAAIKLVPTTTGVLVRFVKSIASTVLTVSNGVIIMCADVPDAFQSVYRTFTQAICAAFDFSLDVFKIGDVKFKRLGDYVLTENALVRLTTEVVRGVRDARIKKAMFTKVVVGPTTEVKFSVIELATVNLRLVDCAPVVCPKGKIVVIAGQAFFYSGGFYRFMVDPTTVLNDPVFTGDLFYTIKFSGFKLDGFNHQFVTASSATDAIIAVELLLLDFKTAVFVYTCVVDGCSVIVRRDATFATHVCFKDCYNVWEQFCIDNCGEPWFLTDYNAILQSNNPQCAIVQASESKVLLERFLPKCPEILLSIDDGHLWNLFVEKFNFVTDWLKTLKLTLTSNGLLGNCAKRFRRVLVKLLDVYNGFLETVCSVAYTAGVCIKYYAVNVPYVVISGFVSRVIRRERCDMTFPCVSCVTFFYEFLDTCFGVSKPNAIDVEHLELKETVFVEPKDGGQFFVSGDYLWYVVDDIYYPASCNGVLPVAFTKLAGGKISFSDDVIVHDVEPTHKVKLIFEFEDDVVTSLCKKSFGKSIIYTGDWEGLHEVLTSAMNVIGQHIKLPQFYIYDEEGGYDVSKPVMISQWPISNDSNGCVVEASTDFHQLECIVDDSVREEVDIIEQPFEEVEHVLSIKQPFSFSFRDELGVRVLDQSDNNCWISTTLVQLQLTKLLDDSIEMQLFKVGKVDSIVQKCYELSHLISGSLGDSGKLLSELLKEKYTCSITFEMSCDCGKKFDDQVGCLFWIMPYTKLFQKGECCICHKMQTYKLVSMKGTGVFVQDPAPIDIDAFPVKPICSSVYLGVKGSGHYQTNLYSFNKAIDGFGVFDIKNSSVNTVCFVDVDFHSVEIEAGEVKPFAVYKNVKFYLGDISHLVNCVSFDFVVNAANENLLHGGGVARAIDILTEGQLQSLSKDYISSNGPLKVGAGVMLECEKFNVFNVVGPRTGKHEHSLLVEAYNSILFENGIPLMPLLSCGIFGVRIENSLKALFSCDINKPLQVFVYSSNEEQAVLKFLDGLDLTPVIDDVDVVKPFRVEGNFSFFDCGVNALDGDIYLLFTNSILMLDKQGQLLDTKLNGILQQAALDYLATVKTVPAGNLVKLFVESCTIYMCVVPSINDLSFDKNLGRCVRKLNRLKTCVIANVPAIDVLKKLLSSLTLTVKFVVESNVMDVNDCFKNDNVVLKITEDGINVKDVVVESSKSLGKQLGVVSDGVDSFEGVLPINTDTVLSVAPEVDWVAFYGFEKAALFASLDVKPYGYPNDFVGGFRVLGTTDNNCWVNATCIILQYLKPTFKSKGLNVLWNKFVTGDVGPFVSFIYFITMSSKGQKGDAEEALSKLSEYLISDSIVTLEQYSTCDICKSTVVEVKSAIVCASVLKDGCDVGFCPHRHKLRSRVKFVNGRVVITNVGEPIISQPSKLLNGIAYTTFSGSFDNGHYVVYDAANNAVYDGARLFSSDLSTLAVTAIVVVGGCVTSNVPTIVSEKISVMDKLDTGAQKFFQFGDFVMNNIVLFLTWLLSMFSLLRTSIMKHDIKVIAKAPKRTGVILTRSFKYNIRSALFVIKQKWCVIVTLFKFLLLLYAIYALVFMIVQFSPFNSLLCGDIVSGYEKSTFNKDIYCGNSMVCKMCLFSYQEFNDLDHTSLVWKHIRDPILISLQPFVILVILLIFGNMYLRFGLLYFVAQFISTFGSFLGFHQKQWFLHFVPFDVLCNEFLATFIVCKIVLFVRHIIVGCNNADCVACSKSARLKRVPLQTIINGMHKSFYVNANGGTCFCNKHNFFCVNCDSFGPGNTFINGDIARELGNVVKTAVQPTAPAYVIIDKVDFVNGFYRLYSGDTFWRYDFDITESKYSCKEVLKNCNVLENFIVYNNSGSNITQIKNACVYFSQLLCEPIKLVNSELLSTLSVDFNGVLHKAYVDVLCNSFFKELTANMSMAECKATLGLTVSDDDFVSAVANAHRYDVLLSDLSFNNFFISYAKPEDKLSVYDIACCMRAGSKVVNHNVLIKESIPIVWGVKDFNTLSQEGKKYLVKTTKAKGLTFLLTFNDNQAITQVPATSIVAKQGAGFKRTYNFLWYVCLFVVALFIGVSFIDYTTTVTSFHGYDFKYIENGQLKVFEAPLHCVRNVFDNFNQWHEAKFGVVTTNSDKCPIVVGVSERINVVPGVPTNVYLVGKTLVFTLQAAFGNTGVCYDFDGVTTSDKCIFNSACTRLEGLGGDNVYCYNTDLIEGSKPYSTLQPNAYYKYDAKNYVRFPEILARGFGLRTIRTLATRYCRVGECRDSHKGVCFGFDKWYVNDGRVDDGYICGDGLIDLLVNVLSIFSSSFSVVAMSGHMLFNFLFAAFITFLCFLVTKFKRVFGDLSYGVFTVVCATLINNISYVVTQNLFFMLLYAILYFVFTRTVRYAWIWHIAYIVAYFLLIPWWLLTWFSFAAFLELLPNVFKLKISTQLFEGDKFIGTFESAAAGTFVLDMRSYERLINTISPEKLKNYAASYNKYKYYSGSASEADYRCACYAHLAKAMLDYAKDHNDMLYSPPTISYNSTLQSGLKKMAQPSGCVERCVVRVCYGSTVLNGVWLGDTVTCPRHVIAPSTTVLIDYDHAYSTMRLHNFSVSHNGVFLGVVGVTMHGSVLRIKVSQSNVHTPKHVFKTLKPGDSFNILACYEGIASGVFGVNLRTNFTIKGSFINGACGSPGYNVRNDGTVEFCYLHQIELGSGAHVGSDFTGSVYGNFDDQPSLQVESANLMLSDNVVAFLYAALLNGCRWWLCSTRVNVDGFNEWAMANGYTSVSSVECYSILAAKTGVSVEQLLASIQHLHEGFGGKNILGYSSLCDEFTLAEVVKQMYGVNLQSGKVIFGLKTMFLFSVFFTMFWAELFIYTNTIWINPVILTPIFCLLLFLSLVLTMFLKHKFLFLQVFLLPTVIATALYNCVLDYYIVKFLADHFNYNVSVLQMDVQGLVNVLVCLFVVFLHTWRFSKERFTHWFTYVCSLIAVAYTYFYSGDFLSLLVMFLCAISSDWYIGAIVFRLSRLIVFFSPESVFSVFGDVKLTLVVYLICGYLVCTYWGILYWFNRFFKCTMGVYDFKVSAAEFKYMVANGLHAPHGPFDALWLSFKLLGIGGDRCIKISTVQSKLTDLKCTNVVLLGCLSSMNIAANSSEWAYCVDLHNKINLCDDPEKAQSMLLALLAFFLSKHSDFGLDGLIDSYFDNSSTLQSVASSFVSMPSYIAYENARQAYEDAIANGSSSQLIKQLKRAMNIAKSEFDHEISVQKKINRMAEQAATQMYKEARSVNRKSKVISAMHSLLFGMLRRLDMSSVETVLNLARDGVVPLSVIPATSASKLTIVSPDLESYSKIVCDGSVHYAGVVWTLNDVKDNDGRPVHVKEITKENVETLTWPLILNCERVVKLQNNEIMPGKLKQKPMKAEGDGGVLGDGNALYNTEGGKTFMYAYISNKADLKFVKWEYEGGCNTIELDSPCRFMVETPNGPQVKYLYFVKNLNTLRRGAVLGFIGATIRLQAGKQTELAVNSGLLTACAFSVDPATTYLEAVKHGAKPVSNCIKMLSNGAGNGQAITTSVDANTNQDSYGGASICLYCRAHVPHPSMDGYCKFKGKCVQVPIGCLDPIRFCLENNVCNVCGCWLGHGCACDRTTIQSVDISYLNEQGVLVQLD
Series [12] can be described thus: Therapeutic index, ratio of CC50 for african green monkey Vero E6 cells to EC50 for SARS coronavirus infected in african green monkey Vero E6 cells. In kind it is cell-based. To be noted: read-out: Ratio CC50/EC50.

Ubiquitin carboxyl-terminal hydrolase 20, sequence (Q9Y2K6 whole entry, the tested form may be a part): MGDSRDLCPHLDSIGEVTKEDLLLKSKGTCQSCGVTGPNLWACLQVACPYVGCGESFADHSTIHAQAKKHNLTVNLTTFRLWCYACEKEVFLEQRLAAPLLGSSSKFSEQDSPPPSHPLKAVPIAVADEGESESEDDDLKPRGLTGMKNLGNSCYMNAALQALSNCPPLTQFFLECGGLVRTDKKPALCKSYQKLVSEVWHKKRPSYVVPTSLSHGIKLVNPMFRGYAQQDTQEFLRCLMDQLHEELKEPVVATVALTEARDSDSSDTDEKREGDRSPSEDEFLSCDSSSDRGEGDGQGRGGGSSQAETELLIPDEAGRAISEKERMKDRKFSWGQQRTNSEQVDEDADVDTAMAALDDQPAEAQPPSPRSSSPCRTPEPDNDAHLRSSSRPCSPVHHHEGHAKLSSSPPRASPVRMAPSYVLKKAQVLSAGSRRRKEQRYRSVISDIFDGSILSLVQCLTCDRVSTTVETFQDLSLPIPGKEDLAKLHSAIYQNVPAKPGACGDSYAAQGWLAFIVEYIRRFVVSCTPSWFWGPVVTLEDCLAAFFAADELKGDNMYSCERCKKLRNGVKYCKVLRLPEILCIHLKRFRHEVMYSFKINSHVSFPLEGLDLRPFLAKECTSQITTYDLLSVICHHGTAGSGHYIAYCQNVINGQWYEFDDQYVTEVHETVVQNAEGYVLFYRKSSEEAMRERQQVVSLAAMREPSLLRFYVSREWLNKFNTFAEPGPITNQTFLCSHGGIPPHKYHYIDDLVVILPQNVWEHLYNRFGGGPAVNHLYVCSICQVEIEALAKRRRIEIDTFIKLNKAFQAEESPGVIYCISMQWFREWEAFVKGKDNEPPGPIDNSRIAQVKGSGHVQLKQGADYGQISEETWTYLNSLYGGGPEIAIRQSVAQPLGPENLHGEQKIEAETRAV

As to `CC(=O)Nc1cccc(CNC(=O)C2CCN([C@H](C)c3cccc4ccccc34)CC2)c1`, the IC50 (as a rule, the concentration that inhibits the measured activity by half) in [1] (read-out: IC50) is over 100 µM; on Replicase polyprotein 1a it was 46 µM; in [6] it was 0.39 µM; against Caspase-3, “Not Active”; in [9], “Not Active”. The Imax in [2] was 71%; in the series with BL21-DE3, 100%. The CC50 (usually the concentration giving 50% cytotoxicity) was 68 µM with HEK293 and over 100 µM in series [10]. Also, in [3], the remaining at 0.25 h, 1 µM was found to be 20%. In addition, the inhibition (commonly how much of the control response was suppressed) is 10% in [4]; 15% in series [5]; under 10% in series [7]; under 10% in series [8]; over 30% in series [11]. The selectivity ratio in [12] was over 12.

Consider `C[C@H](c1cccc2ccccc12)N1CCC(C(=O)NCc2ccc(F)cc2)CC1`, for which the IC50 in series [1] (read-out: IC50) is over 100 µM; in series [6], 0.49 µM; against Caspase-3, “Not Active”; in [9], “Not Active”. For the same molecule, the CC50 with HEK293 was 73 µM; in [10], over 100 µM. Further, the inhibition in series [4] is under 10%; in [5] it was 15%; in [7] it was under 10%; in [8], under 10%. For the same molecule, in series [12], the selectivity ratio was over 8.6.

For `C[C@H](c1cccc2ccccc12)N1CCC(C(=O)NCc2cccc(F)c2)CC1`, the IC50 in series [1] (read-out: IC50) is over 100 µM; on Replicase polyprotein 1a it was 33 µM; in series [6] it was 0.15 µM; on Caspase-3, “Not Active”; in series [9], “Not Active”. The Imax in series [2] worked out at 57%; in the series on BL21-DE3, 100%. Further, the CC50 with HEK293 is 73 µM; in series [10] it was over 100 µM. For the same molecule, the remaining at 0.25 h, 1 µM in [3] was 1.2%. The inhibition in [4] is under 10%; in [5] it was 15%; in series [7], under 10%; in series [8], under 10%; in series [11], over 30%. For the same molecule, the selectivity ratio in [12] was over 18.5.

Take `C[C@H](c1cccc2ccccc12)N1CCC(C(=O)NCc2ccc3c(c2)OCO3)CC1`: the IC50 result was “Not Active” in [1]; 18 µM at Replicase polyprotein 1a; 0.67 µM in series [6]; “Not Active” on Caspase-3; “Not Active” in [9]. The Imax was found to be 46% in series [2] and 99% in the series with BL21-DE3. Besides, the CC50 (with HEK293; in series [10]) was over 100 µM throughout. Further, in [3], the remaining at 0.25 h, 1 µM worked out at 0.2%. For the same molecule, the inhibition is under 10% in series [4]; 15% in series [5]; under 10% in series [7]; under 10% in series [8]; over 30% in [11].
